Assay: Variable temperature NMR (vt-NMR) of amide protons in CDCl3
Assay type: physicochemical
Settings: CDCl3, 298–328 K
Text: With this premise, we performed NMR studies to quantify the HBD solvent exposure of the amide protons using the HBD Acidity NMR score (ANMR)[47] and variable temperature studies (vt-NMR).[48] To note, although vt-NMR has originally been developed and applied to the study of peptides,[49] it is, together with the ANMR value, a well-established method for studying the intramolecular hydrogen bonding (IMHB) patterns in systems such as PROTACs[10],[12],[18],[26] as well as in ferrocene structures.[29],[50]−[53] […]
Standard NMR experiments were performed at 298 K, while variable-temperature NMR experiments recorded spectra across a temperature range from 298 K to 328 K allowing a sufficient temperature equilibration time (10–15 min) before signal acquisition. All NOESY spectra for conformational analysis as well as the assignment spectra in methanol-d 4 were recorded on a 500 MHz Bruker Avance III equipped with a 5 mm QCI cryogenic probe. NOESY spectra were obtained from a sample at 1.25 mM in CDCl3 and 1.25 mM in methanol-d4, recorded at 298 K, using 16 transients, 1024 points in the direct dimension and 512 points in the indirect dimension, a relaxation delay of 1.5 s, and a mixing time of 700 ms. All other spectra used for signal assignment in CDCl3 were recorded on 500 MHz Bruker Avance NEO with a BBFO SmartProbe. […]

SMILES: Cc1ncsc1-c1ccc(CNC(=O)[C@@H]2C[C@@H](O)CN2C(=O)[C@@H](NC(=O)CCCCCOCCOCCCCCC(=O)Nc2cccc3c2C(=O)N(C2CCC(=O)NC2=O)C3=O)C(C)(C)C)cc1 (some centres unmarked) [14a]
- temperature coefficient Δδ/ΔT N(1)-H: −3.52 ppb/K
- temperature coefficient Δδ/ΔT N(2)-H: −1.57 ppb/K
